Reference: BindingDB's records for doi:10.1021/acs.jmedchem.7b01708 (Duquesne University, 2018)

How the values were obtained:
[1] = Binding affinity to human RFC expressed in Chinese hamster PC43-10 cells assessed as antiproliferative activity measured as reduction in cell viability after 96 hrs by Cell-Titer Blue assay
[2] = Binding affinity to human PCFT expressed in Chinese hamster R2/PCFT4 cells assessed as antiproliferative activity measured as reduction in cell viability after 96 hrs by Cell-Titer Blue assay
[3] = Binding affinity to human FR-beta receptor expressed in Chinese hamster D4 cells assessed as antiproliferative activity measured as reduction in cell viability after 96 hrs by Cell-Titer Blue assay
[4] = Binding affinity to human FR-alpha receptor expressed in Chinese hamster RT16 cells assessed as antiproliferative activity measured as reduction in cell viability after 96 hrs by Cell-Titer Blue assay
[5] = Binding affinity to human FR-beta receptor expressed in Chinese hamster D4 cells assessed as antiproliferative activity measured as reduction in cell viability after 96 hrs in presence of folic acid by Cell-Titer Blue assay
[6] = Binding affinity to human FR-alpha receptor expressed in Chinese hamster RT16 cells assessed as antiproliferative activity measured as reduction in cell viability after 96 hrs in presence of folic acid by Cell-Titer Blue assay

Compound: Nc1nc2[nH]c(CCCCc3ccc(C(=O)N[C@@H](CCC(=O)O)C(=O)O)nc3)cc2c(=O)[nH]1
- IC50 [1]: > 1000 nM
- IC50 [2]: 58 nM

Compound: Nc1nc2[nH]c(CCCCc3ccc(C(=O)N[C@@H](CCC(=O)O)C(=O)O)cc3)cc2c(=O)[nH]1 [N-{4-[4-(2-Amino-4-oxo-4,7-dihydro-3H-pyrrolo[2,3-d]pyrimidin-6-yl)butyl]benzoyl}-L-glutamic Acid]
- IC50 [1]: > 1000 nM

Compound: Nc1nc2[nH]c(CCCCc3cccc(C(=O)N[C@@H](CCC(=O)O)C(=O)O)n3)cc2c(=O)[nH]1
- IC50 [1]: > 1000 nM
- IC50 [3]: > 1000 nM
- IC50 [4]: 186 nM
- IC50 [5]: > 1000 nM
- IC50 [6]: > 1000 nM

Compound: Nc1nc2[nH]c(CCC#Cc3ccc(C(=O)N[C@@H](CCC(=O)O)C(=O)O)nc3)cc2c(=O)[nH]1
- IC50 [1]: > 1000 nM
- IC50 [2]: > 1000 nM
- IC50 [3]: 19 nM
- IC50 [4]: 4.4 nM
- IC50 [5]: > 1000 nM
- IC50 [6]: > 1000 nM

Compound: Nc1nc2[nH]c(CCC#Cc3cccc(C(=O)N[C@@H](CCC(=O)O)C(=O)O)n3)cc2c(=O)[nH]1
- IC50 [1]: > 1000 nM
- IC50 [2]: > 1000 nM
- IC50 [3]: > 1000 nM
- IC50 [4]: > 1000 nM
- IC50 [5]: > 1000 nM
- IC50 [6]: > 1000 nM

Compound: Nc1nc2[nH]c(CCC#Cc3ccc(C(=O)N[C@@H](CCC(=O)O)C(=O)O)cn3)cc2c(=O)[nH]1
- IC50 [1]: > 1000 nM
- IC50 [2]: > 1000 nM
- IC50 [3]: 839 nM
- IC50 [4]: 449 nM
- IC50 [5]: > 1000 nM
- IC50 [6]: > 1000 nM

Compound: C#CCC(Cc1cnc2nc(N)nc(N)c2n1)c1ccc(C(=O)N[C@@H](CCC(=O)O)C(=O)O)cc1 (stereo partly specified) [CHEBI:71223]
- IC50 [1]: 0.69 nM
- IC50 [2]: 57 nM
- IC50 [4]: 168 nM
- IC50 [6]: > 1000 nM

Compound: Nc1nc2[nH]c(CCCCc3ccc(C(=O)N[C@@H](CCC(=O)O)C(=O)O)cn3)cc2c(=O)[nH]1
- IC50 [1]: > 1000 nM
- IC50 [2]: > 1000 nM
- IC50 [3]: 37 nM
- IC50 [4]: 15 nM
- IC50 [5]: > 1000 nM
- IC50 [6]: > 1000 nM
